{
  "source": "patent US20220347171A1",
  "about": "“TREATMENT OF PRURIGO NODULARIS” (TREVI THERAPEUTICS, INC., priority 2016, published 2022)",
  "test_system": "prurigo nodularis patients",
  "assay": "TR03ext (Example 3): PAS prurigo lesions with excoriations/crusts; Stage 0 0%, Stage 1 1%-25%, Stage 2 26%-50%, Stage 3 51%-75%, Stage 4 76%-100%",
  "type": "in vivo, human",
  "from_the_text": "In some embodiments, after the treatment the patient experiences a substantial reduction of itch that is characterized by at least one category/stage improvement in Prurigo Activity Score (PAS). In particular embodiments, after the treatment the patient experiences a reduction of itch that results in at least one category/stage improvement in Prurigo Activity Score (PAS) domains of number of prurigo lesions, prurigo lesions with excoriations/crusts and/or healed prurigo lesions. The PAS consists of 7 qualitative and quantitative measurements related to the examination of the skin. Type, number, distribution, affected body parts, and quantitative number of lesions in a representative body part are documented. The biggest lesion and the most representative lesion are monitored with documentation of height and area measurements. Prurigo lesion activity is recorded as a percentages based on their stage (0-4). In some embodiments, number measurements of lesions on the body have four numerical categories: 0, 1-19, 20-100 and >100. In some embodiments, prurigo lesions with excoriations/crusts have five categories: Stage 4 (76%-100%), Stage 3 (51%-75%), Stage 2 (26%-50%), Stage 1 (1-25%) and Stage 0 (0%). In some embodiments, healed prurigo lesions have five categories: Stage 4 (0-24%), Stage 3 (25-49%), Stage 2 (50-74%), Stage 1 (75%-99%), Stage 0 (100%).\nThis clinical study was a Phase 2 Open Label Extension Study (clinical study TR03ext) of the randomized, double-blind, 3-parallel arm, placebo controlled dose ranging study described in Example 2. All those subjects who were randomized, and then completed Example 2 study, were eligible to participate in the Extension Study.\nThe primary endpoint was a description of the overall incidence and nature of Treatment-Emergent AEs (TEAES) during weeks 5-50 of the study. Exploratory efficacy endpoints included Change from Baseline patient reported outcome measures of Worst itch NRS, itchy VRS and ItchyQoL, by Treatment Period study visit and Baseline NRS score. There was also an assessment of any potential skin lesion changes over time using the metrics of the PAS.\nPatients in Extension Study were titrated over a dose range of 30 mg QD to 180 mg BID based on tolerability. The selected dose range was based on Example 2 study whereby patients were titrated from a 30 mg QD dose either to 30 mg BID, 60 mg BID, 90 mg BID, 120 mg BID or a 180 mg BID dose. The highest dose proposed was 180 mg BID (360 mg daily dose), and was well below the highest recommended daily treatment of 160 mg IV (equivalent to 960 mg oral) for the current marketed parenteral administered product.\nTable 15, 16 and 17 display excoriations/crusts lesion PAS data for subjects who received treatment for at least 6 months, subjects who received treatment for at least 9 months and subjects who completed 50 weeks of treatment in the study, respectively. The status of the prurigo lesions with excoriations/crusts is reported as percentages based on their stage (0-4) using a grading system: Stage 0 (0% excoriations/crusts); Stage 1 (1%-25% excoriations/crusts); Stage 2 (26%-50% excoriations/crusts); Stage 3 (51%-75% excoriations/crusts); Stage 4: (76%-100% excoriations/crusts). Thus, the higher the stage, the more severe is the prurigo skin pathology.",
  "key": {"[1]": {"conditions": "treatment for at least 6 months"}, "[2]": {"conditions": "treatment for at least 9 months"}},
  "note": "Where a name gives a salt, the structure may show the parent alone.",
  "data": [
    {"smiles": "Oc1ccc2c3c1OC1[C@@H](O)CC[C@@]4(O)[C@@H](C2)N(CC2CCC2)CC[C@]314", "note": "(stereo partly drawn) [Nalbuphine, 17-(cyclobutylmethyl)-4,5α-epoxymorphinian-3, 6α, 14-triol, hydrochloride]", "values": [
      {"measurement": "Excoriated/Crusts PAS Category Shift: Baseline Stage 2 to Last Observed Stage 3", "setting": "[1]", "result": "0 Number (%) of Subjects"},
      {"measurement": "Excoriated/Crusts PAS Category Shift: Baseline Stage 2 to Last Observed Stage 4", "setting": "[1]", "result": "0 Number (%) of Subjects"},
      {"measurement": "Excoriated/Crusts PAS Category Shift: Baseline Stage 3 to Last Observed Stage 0", "setting": "[1]", "result": "0 Number (%) of Subjects"},
      {"measurement": "Excoriated/Crusts PAS Category Shift: Baseline Stage 3 to Last Observed Stage 1", "setting": "[1]", "result": "1 (5.9%) Number (%) of Subjects"},
      {"measurement": "Excoriated/Crusts PAS Category Shift: Baseline Stage 3 to Last Observed Stage 2", "setting": "[1]", "result": "2 (11.8%) Number (%) of Subjects"},
      {"measurement": "Excoriated/Crusts PAS Category Shift: Baseline Stage 3 to Last Observed Stage 3", "setting": "[1]", "result": "1 (5.9%) Number (%) of Subjects"},
      {"measurement": "Excoriated/Crusts PAS Category Shift: Baseline Stage 3 to Last Observed Stage 4", "setting": "[1]", "result": "0 Number (%) of Subjects"},
      {"measurement": "Excoriated/Crusts PAS Category Shift: Baseline Stage 4 to Last Observed Stage 0", "setting": "[1]", "result": "1 (5.9%) Number (%) of Subjects"},
      {"measurement": "Excoriated/Crusts PAS Category Shift: Baseline Stage 4 to Last Observed Stage 1", "setting": "[1]", "result": "2 (11.8%) Number (%) of Subjects"},
      {"measurement": "Excoriated/Crusts PAS Category Shift: Baseline Stage 4 to Last Observed Stage 2", "setting": "[1]", "result": "0 Number (%) of Subjects"},
      {"measurement": "Excoriated/Crusts PAS Category Shift: Baseline Stage 4 to Last Observed Stage 3", "setting": "[1]", "result": "0 Number (%) of Subjects"},
      {"measurement": "Excoriated/Crusts PAS Category Shift: Baseline Stage 4 to Last Observed Stage 4", "setting": "[1]", "result": "1 (5.9%) Number (%) of Subjects"},
      {"measurement": "Excoriated/Crusts PAS: Last Observed PAS Result Stage 0", "setting": "[1]", "result": "3 (17.6) Number (%) of Subjects"},
      {"measurement": "Excoriated/Crusts PAS: Last Observed PAS Result Stage 1", "setting": "[1]", "result": "9 (52.9) Number (%) of Subjects"},
      {"measurement": "Excoriated/Crusts PAS: Last Observed PAS Result Stage 2", "setting": "[1]", "result": "2 (11.8) Number (%) of Subjects"},
      {"measurement": "Excoriated/Crusts PAS: Last Observed PAS Result Stage 3", "setting": "[1]", "result": "1 (5.9) Number (%) of Subjects"},
      {"measurement": "Excoriated/Crusts PAS: Last Observed PAS Result Stage 4", "setting": "[1]", "result": "2 (11.8) Number (%) of Subjects"},
      {"measurement": "Excoriated/Crusts PAS Category Shift: Baseline Stage 0 to Last Observed Stage 0", "setting": "[2]", "result": "1 (7.1%) Number (%) of Subjects"},
      {"measurement": "Excoriated/Crusts PAS Category Shift: Baseline Stage 0 to Last Observed Stage 1", "setting": "[2]", "result": "0 Number (%) of Subjects"},
      {"measurement": "Excoriated/Crusts PAS Category Shift: Baseline Stage 0 to Last Observed Stage 2", "setting": "[2]", "result": "0 Number (%) of Subjects"},
      {"measurement": "Excoriated/Crusts PAS Category Shift: Baseline Stage 0 to Last Observed Stage 3", "setting": "[2]", "result": "0 Number (%) of Subjects"},
      {"measurement": "Excoriated/Crusts PAS Category Shift: Baseline Stage 0 to Last Observed Stage 4", "setting": "[2]", "result": "0 Number (%) of Subjects"},
      {"measurement": "Excoriated/Crusts PAS Category Shift: Baseline Stage 1 to Last Observed Stage 0", "setting": "[2]", "result": "0 Number (%) of Subjects"},
      {"measurement": "Excoriated/Crusts PAS Category Shift: Baseline Stage 1 to Last Observed Stage 1", "setting": "[2]", "result": "1 (7.1%) Number (%) of Subjects"},
      {"measurement": "Excoriated/Crusts PAS Category Shift: Baseline Stage 1 to Last Observed Stage 2", "setting": "[2]", "result": "0 Number (%) of Subjects"},
      {"measurement": "Excoriated/Crusts PAS Category Shift: Baseline Stage 1 to Last Observed Stage 3", "setting": "[2]", "result": "0 Number (%) of Subjects"},
      {"measurement": "Excoriated/Crusts PAS Category Shift: Baseline Stage 1 to Last Observed Stage 4", "setting": "[2]", "result": "1 (7.1%) Number (%) of Subjects"},
      {"measurement": "Excoriated/Crusts PAS Category Shift: Baseline Stage 2 to Last Observed Stage 0", "setting": "[2]", "result": "0 Number (%) of Subjects"},
      {"measurement": "Excoriated/Crusts PAS Category Shift: Baseline Stage 2 to Last Observed Stage 1", "setting": "[2]", "result": "5 (35.7%) Number (%) of Subjects"},
      {"measurement": "Excoriated/Crusts PAS Category Shift: Baseline Stage 2 to Last Observed Stage 2", "setting": "[2]", "result": "0 Number (%) of Subjects"},
      {"measurement": "Excoriated/Crusts PAS Category Shift: Baseline Stage 2 to Last Observed Stage 3", "setting": "[2]", "result": "0 Number (%) of Subjects"},
      {"measurement": "Excoriated/Crusts PAS Category Shift: Baseline Stage 2 to Last Observed Stage 4", "setting": "[2]", "result": "0 Number (%) of Subjects"},
      {"measurement": "Excoriated/Crusts PAS Category Shift: Baseline Stage 3 to Last Observed Stage 0", "setting": "[2]", "result": "0 Number (%) of Subjects"},
      {"measurement": "Excoriated/Crusts PAS Category Shift: Baseline Stage 3 to Last Observed Stage 1", "setting": "[2]", "result": "0 Number (%) of Subjects"},
      {"measurement": "Excoriated/Crusts PAS Category Shift: Baseline Stage 3 to Last Observed Stage 2", "setting": "[2]", "result": "2 (14.3%) Number (%) of Subjects"},
      {"measurement": "Excoriated/Crusts PAS Category Shift: Baseline Stage 3 to Last Observed Stage 3", "setting": "[2]", "result": "1 (7.1%) Number (%) of Subjects"},
      {"measurement": "Excoriated/Crusts PAS Category Shift: Baseline Stage 3 to Last Observed Stage 4", "setting": "[2]", "result": "0 Number (%) of Subjects"},
      {"measurement": "Excoriated/Crusts PAS Category Shift: Baseline Stage 4 to Last Observed Stage 0", "setting": "[2]", "result": "1 (7.1%) Number (%) of Subjects"},
      {"measurement": "Excoriated/Crusts PAS Category Shift: Baseline Stage 4 to Last Observed Stage 1", "setting": "[2]", "result": "1 (7.1%) Number (%) of Subjects"},
      {"measurement": "Excoriated/Crusts PAS Category Shift: Baseline Stage 4 to Last Observed Stage 2", "setting": "[2]", "result": "0 Number (%) of Subjects"},
      {"measurement": "Excoriated/Crusts PAS Category Shift: Baseline Stage 4 to Last Observed Stage 3", "setting": "[2]", "result": "0 Number (%) of Subjects"},
      {"measurement": "Excoriated/Crusts PAS Category Shift: Baseline Stage 4 to Last Observed Stage 4", "setting": "[2]", "result": "1 (7.1%) Number (%) of Subjects"},
      {"measurement": "Excoriated/Crusts PAS: Last Observed PAS Result Stage 0", "setting": "[2]", "result": "2 (14.3) Number (%) of Subjects"},
      {"measurement": "Excoriated/Crusts PAS: Last Observed PAS Result Stage 1", "setting": "[2]", "result": "7 (50.0) Number (%) of Subjects"},
      {"measurement": "Excoriated/Crusts PAS: Last Observed PAS Result Stage 2", "setting": "[2]", "result": "2 (14.3) Number (%) of Subjects"},
      {"measurement": "Excoriated/Crusts PAS: Last Observed PAS Result Stage 3", "setting": "[2]", "result": "1 (7.1) Number (%) of Subjects"},
      {"measurement": "Excoriated/Crusts PAS: Last Observed PAS Result Stage 4", "setting": "[2]", "result": "2 (14.3) Number (%) of Subjects"}
    ]}
  ]
}
